Source: patent US9957282B2, “Crystalline forms of quinolone analogs and their salts” (Senhwa Biosciences, Inc., priority 2015, dated 2018)

What was measured:
[1] = Aqueous solubility of acid salts of Compound I; type: physicochemical; conditions: water, 42 °C, thermodynamic from solid, approximately 50 mg salt in 0.25 mL water (x2, added portion wise), read-out: Aqueous Solubility (Calculated)
Description: The mixture was stirred at 42° C. for 3 days and each solution was analyzed by HPLC for concentration and purity.

[2] = Solubility of polymorph forms in organic solvents; type: physicochemical
Description: Solubility of polymorphs A, C, E, and G of Compound I (free base) were determined by suspending approximately 25 mg of each polymorph in organic solvents and the resulting mixtures were stirred at room temperature or elevated temperatures for 1 h. A sample was filtered and the concentration was determined by HPLC. The remaining suspension was evaporated and the solid was analyzed by XRPD to confirm that the polymorph form in the suspension was still the same polymorph form used for the experiment.

SMILES | solubility at 3 days [1] | Relative stability of polymorph, inferred from solubility ([2]; compared with polymorphs C, E, G) | Solubility of polymorph relative to polymorphs A, C, E, G ([2]; methanol and THF (FIG. 20), room temperature or elevated temperatures, stirred 1 h)
Cc1cnc(CNC(=O)c2c(=O)c3ccc(N4CCCN(C)CC4)nc3n3c2sc2ccccc23)cn1 | > 200 mg/mL | – | –
Cc1cnc(CNC(=O)c2c(=O)c3ccc(N4CCCN(C)CC4)nc3n3c2sc2ccccc23)cn1 [Polymorph A] | – | most stable | lowest solubility
